Pest or weed control and inhibition data for 13 compounds are collected here from patent publication US12565489B2, “Heterocyclyl pyrimidines and triazines as novel fungicides” (Bayer Aktiengesellschaft, priority 2020, dated 2026).

Each structure is given as a SMILES string.

Test [1] concerns Sphaerotheca fuliginea. Nature of the test: In vivo preventive test on Sphaerotheca fuliginea (powdery mildew on cucurbits). The following applies: Podosphaera fuliginea, 192 h; 500 ppm of active ingredient; preventive spray on young gherkin plants; evaluated 8 days after inoculation; read-out: efficacy. Put shortly: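 Young gherkin plants were sprayed preventively with compound dissolved in DMSO/acetone/Tween 80 and diluted in water; controls got solvent only. Leaves were inoculated 24 hours later with an aqueous Sphaerotheca fuliginea spore suspension.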

Test [2] deals with Colletotrichum lindemuthianum. Nature of the test: In vivo preventive test on Colletotrichum lindemuthianum (leaf spot on bean). The settings on record: 168 h, 500 ppm of active ingredient, preventive spray on young bean plants, evaluated 7 days after inoculation, read-out: efficacy. Put shortly: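 Young bean plants sprayed with compound dissolved in DMSO/acetone/Tween 80 and diluted in water; vehicle-only plants served as controls. After 24 hours, leaves inoculated by spraying an aqueous suspension of Colletotrichum lindemuthianum spores.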

Test [3] has as its system Pyricularia oryzae. Nature of the test: microbe, parasite or virus in culture. Type of test: cell-based. The settings on record: 120 h, read-out: efficacy (inhibition of fungal growth).
Test [4] concerns Botrytis cinerea. Nature of the test: Botrytis cinerea in vitro cell test. It counts as cell-based. The following applies: 144 h, 20 ppm of active ingredient, 6 days incubation, liquid culture, spectrometric measurement of mycelium growth, read-out: efficacy (inhibition of fungal growth). The method, boiled down:
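B. cinerea spore suspension grown in defined liquid mineral/sucrose medium with DMSO-dissolved compounds for 6 days. Mycelial growth was measured by absorbance, and inhibition was derived relative to fungicide-free control wells.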

Test [5] deals with Alternaria alternata. Briefly: Alternaria alternata in vitro cell test. Type of test: cell-based. The settings on record: 120 h, 20 ppm of active ingredient, 5 days incubation, liquid culture, spectrometric measurement of mycelium growth, read-out: efficacy (inhibition of fungal growth). The method, boiled down: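 Spore suspension of A. alternata in glucose/mycological peptone/yeast extract liquid medium, with compounds added from DMSO solutions at a range of concentrations. After 5 days, mycelium growth was measured spectrometrically. Inhibition was expressed relative to absorbance of fungicide-free control wells.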

The subject of test [6] is Pyrenophora teres. Nature of the test: Pyrenophora teres in vitro cell test. It counts as cell-based. The settings on record: 144 h, 20 ppm of active ingredient, 6 days incubation, liquid culture, spectrometric measurement of mycelium growth, read-out: efficacy (inhibition of fungal growth). Put shortly:
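Spore suspension grown in liquid glucose–peptone–yeast extract medium with compound added from DMSO solution. Mycelium growth read by absorbance after 6 days. Inhibition is relative to compound-free control wells.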

Test [7] relates to Colletotrichum lindemuthianum. Briefly: Colletotrichum lindemuthianum in vitro cell test. Type of test: cell-based. The following applies: 144 h, 20 ppm of active ingredient, 6 days incubation, liquid culture, spectrometric measurement of mycelium growth, read-out: efficacy (inhibition of fungal growth). Put shortly:
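C. lindemuthianum spores were incubated with DMSO-solubilized compounds in liquid glucose-peptone-yeast extract medium, scoring inhibition of germination and mycelial growth. Mycelial growth was measured spectrometrically after 6 days. Inhibition was calculated from absorbance relative to compound-free control wells.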

The test system of test [8] is Botrytis cinerea. Nature of the test: In vivo preventive test on Botrytis cinerea (grey mould). The following applies: 500 ppm of active ingredient, preventive spray on young gherkin or cabbage plants, evaluated 4 to 5 days after inoculation, read-out: efficacy. Put shortly:
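Gherkin or cabbage seedlings sprayed preventively with compound (DMSO/acetone/Tween 80 formulation diluted in water); controls got solvent only. Leaves inoculated 24 h later by spraying aqueous B. cinerea spore suspension.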

Test [9] concerns Alternaria brassicae. Briefly: In vivo preventive test on Alternaria brassicae (leaf spot on radish or cabbage). The following applies: 144 h, 500 ppm of active ingredient, preventive spray on young radish or cabbage plants, evaluated 6 days after inoculation, read-out: efficacy.

Turning to `Cc1ncc(Oc2cccc(C(F)(F)F)c2)c(C2=NOC[C@@H](Cc3ccc(C(F)F)cc3Cl)N2)n1` (racemic) [Compound I-033], the pest or weed control at 500 ppm fell in the range of 90 to 100% in [1], 80 to 89% in test [2], 90 to 100% in [8] and 90 to 100% in test [9]. In addition, the inhibition at 20 ppm in [3] lay within 70 to 79%; in test [4] it was 90 to 100%; in [5], 90 to 100%; in [6], 90 to 100%; in test [7], 90 to 100%.
Regarding `COc1cccc(Oc2cnc(C)nc2C2=NOC[C@@H](Cc3ccc(C)cc3C)N2)c1` (racemic) [Compound I-032], the pest or weed control at 500 ppm in [1], in test [2], in test [8] and in test [9] was 90 to 100% in each case. Further, the inhibition at 20 ppm was 80 to 89% in [3]; 90 to 100% in test [4]; 90 to 100% in [5]; 90 to 100% in test [6]; 90 to 100% in test [7].
`Cc1ccc(C[C@@H]2CON=C(c3nc(C)ncc3Oc3cccc(C4CC4)c3F)N2)c(Cl)c1` (racemic) [Compound I-008]: the pest or weed control at 500 ppm in test [1], in [2], in test [8] and in test [9] was 90 to 100% each time. For the same compound, the inhibition at 20 ppm in test [3], in [4], in [5], in test [6] and in test [7] was 90 to 100% throughout.
On to `Cc1ccc(C[C@@H]2CON=C(c3nc(C)ncc3Oc3cccc(C4CC4)c3F)N2)c(C)c1` (racemic) [Compound I-016], for which the pest or weed control at 500 ppm in [1], in test [2], in test [8] and in test [9] was 90 to 100% each time. The inhibition at 20 ppm in [3], in test [4], in [5], in [6] and in test [7] was 90 to 100% in each case.
In the case of `C=Cc1ccc(C[C@@H]2CON=C(c3nc(C)ncc3Oc3cccc(C(F)(F)F)c3)N2)c(C)c1` (racemic) [Compound I-006], the pest or weed control at 500 ppm was 90 to 100% in test [1], 90 to 100% in test [2], 80 to 89% in test [8] and 90 to 100% in [9]. For the same compound, the inhibition at 20 ppm in [3] lay within 70 to 79%; in test [4], 90 to 100%; in [5] it was 90 to 100%; in test [6], 90 to 100%; in [7] it was 90 to 100%.
As to `Cc1ccc(C[C@@H]2CON=C(c3nc(C)ncc3Oc3cccc(C4CC4)c3)N2)c(C)c1` (racemic) [Compound I-024], the pest or weed control at 500 ppm in test [1], in [2], in test [8] and in test [9] was 90 to 100% in each case. The inhibition at 20 ppm in test [3], in test [4], in test [5], in [6] and in test [7] was 90 to 100% in each case.
Consider `Cc1ccc(C[C@@H]2CON=C(c3nc(C)ncc3Oc3cccc(Cl)c3)N2)c(C)c1` (racemic) [Compound I-023], for which the pest or weed control at 500 ppm in [1], in test [2], in test [8] and in test [9] was 90 to 100% throughout. Further, the inhibition at 20 ppm in test [3], in test [4], in test [5], in [6] and in [7] was 90 to 100% each time.
Consider `Cc1ccc(CC2CON=C(c3nc(C4CC4)ncc3Oc3cccc(C(F)(F)F)c3)N2)c(C)c1` (racemic) [Compound I-001, (5RS)-3-{2-cyclopropyl-5-[3-(trifluoro-methyl)phenoxy]pyrimidin-4-yl}-5-(2,4-dimethylbenzyl)-5,6-dihydro-4H-1,2,4-oxadiazine], for which the pest or weed control at 500 ppm in [1], in test [2], in [8] and in test [9] was 90 to 100% throughout. The inhibition at 20 ppm was 80 to 89% in test [3]; 90 to 100% in test [4]; 90 to 100% in test [5]; 90 to 100% in test [6]; 90 to 100% in test [7].
For the compound `Cc1ncc(Oc2cccc(C(F)(F)F)c2)c(C2=NOCC(Cc3ccc(C4CC4)cc3C)N2)n1` (racemic) [Compound I-029, (5RS)-5-[(4-cyclopropyl-2-methyl-phenyl)methyl]-3-[2-methyl-5-[3-(trifluoromethyl)phenoxy]pyrimidin-4-yl]-5,6-dihydro-4H-1,2,4-oxadiazine], the pest or weed control at 500 ppm in test [1], in [2], in test [8] and in test [9] was 90 to 100% each time. Also, the inhibition at 20 ppm in [3], in [4], in test [5], in test [6] and in test [7] was 90 to 100% throughout.
In the case of `C#Cc1cccc(Oc2cnc(C)nc2C2=NOC[C@@H](Cc3ccc(C)cc3C)N2)c1` (racemic) [Compound I-025], the pest or weed control at 500 ppm in test [1], in test [2], in [8] and in test [9] was 90 to 100% each time. For the same compound, the inhibition at 20 ppm in [3], in test [4], in [5], in test [6] and in [7] was 90 to 100% in each case.
Take `Cc1ncc(Oc2cccc(C(F)(F)F)c2)c(C2=NOCC(Cc3ccc(Br)cc3C)N2)n1` (racemic) [Compound I-021, (5RS)-5-[(4-bromo-2-methyl-phenyl)methyl]-3-[2-methyl-5-[3-(trifluoro-methyl)phenoxy]pyrimidin-4-yl]-5,6-dihydro-4H-1,2,4-oxadiazine]: the pest or weed control at 500 ppm in [1], in test [2], in test [8] and in test [9] was 90 to 100% throughout. Besides, the inhibition at 20 ppm in test [3], in [4], in [5], in test [6] and in test [7] was 90 to 100% each time.
In the case of `Cc1cccc(Oc2cnc(C)nc2C2=NOC[C@@H](Cc3ccc(C)cc3C)N2)c1` (racemic) [Compound I-004], the pest or weed control at 500 ppm in test [1], in [2], in test [8] and in test [9] was 90 to 100% in each case. Further, the inhibition at 20 ppm in [3], in [4], in test [5], in test [6] and in test [7] was 90 to 100% each time.
Turning to `C#Cc1ccc(CC2CON=C(c3nc(C)ncc3Oc3cccc(C(F)(F)F)c3)N2)c(C)c1` (racemic) [Compound I-026, (5RS)-5-[(4-ethynyl-2-methyl-phenyl)methyl]-3-[2-methyl-5-[3-(trifluoromethyl)phenoxy]pyrimidin-4-yl]-5,6-dihydro-4H-1,2,4-oxadiazine], the pest or weed control at 500 ppm in test [1], in test [2], in test [8] and in test [9] was 90 to 100% in each case. Further, the inhibition at 20 ppm in test [3], in [4], in test [5], in [6] and in test [7] was 90 to 100% in each case.

The inhibition is the relative decrease from the control value, in per cent.
